Numbers after ± are expanded uncertainties.
Experiment: activity coefficient (dimensionless); of the first substance listed, at infinite dilution; xn = mol fraction of the nth substance listed
Settings: 298.15 K; 101 kPa; Liquid; Chromatography; x1 = 0

Compound	activity coefficient
CCCNCCC [dipropylamine] + CO	0.91 ± 0.12
CCN(CC)CC [triethylamine] + c1ccccc1	1.28 ± 0.1
CCNCC [diethylamine] + CO	0.33 ± 0.05
CCCN(CCC)CCC [tripropylamine] + c1ccccc1	2.79 ± 0.62
CO [methanol] + CC(C)(C)N	0.29 ± 0.05
CO [methanol] + Cc1ccccn1	0.79 ± 0.1
CO [methanol] + CCC(C)N	0.38 ± 0.05
CC(C)(C)N [2-methyl-2-propanamine] + c1ccccc1	1.32 ± 0.21
CO [methanol] + NC1CCCCC1	0.33 ± 0.03
Cc1cccnc1 [3-methylpyridine] + CO	0.82 ± 0.07
CCCCCCN [1-hexanamine] + c1ccccc1	16.2 ± 3.1
CO [methanol] + CCNCC	0.51 ± 0.03
CCCNCCC [dipropylamine] + c1ccccc1	1.48 ± 0.15
CCCN(CCC)CCC [tripropylamine] + CCCCCCCCCCCCCCCC	1.01
NC1CCCCC1 [cyclohexylamine] + c1ccccc1	6.43 ± 1
CO [methanol] + Cc1cccnc1	0.94 ± 0.12
CC(C)(C)N [2-methyl-2-propanamine] + CO	0.25 ± 0.05

Compound	activity coefficient
Cc1cccnc1 [3-methylpyridine] + c1ccccc1	0.96 ± 0.12
CCC(C)N (centres undefined) [2-butanamine] + CO	0.75 ± 0.1
CCC(C)N (centres undefined) [2-butanamine] + c1ccccc1	1.15 ± 0.17
CCCCCCN [1-hexanamine] + CO	13.7 ± 2.3
CO [methanol] + CCCCCCN	0.38 ± 0.05
CO [methanol] + CCCCN	0.35 ± 0.07
NC1CCCCC1 [cyclohexylamine] + CO	4.81 ± 0.47
CO [methanol] + Cc1ccncc1	0.68 ± 0.1
Cc1ccccn1 [2-methylpyridine] + CO	0.75 ± 0.07
CO [methanol] + C1CCNCC1	0.43 ± 0.03
Cc1ccncc1 [4-methylpyridine] + CO	1 ± 0.12
CO [methanol] + CCCNCCC	0.69 ± 0.05
CO [methanol] + Cc1cccc(C)n1	0.61 ± 0.1
CCCCN [1-butanamine] + CO	0.46 ± 0.07
CCCN(CCC)CCC [tripropylamine] + CO	8.79 ± 1.6
c1ccncc1 [pyridine] + CO	1.2 ± 0.19
Cc1cccc(C)n1 [2,6-dimethylpyridine] + CO	0.94 ± 0.07

Source: the NIST ThermoML archive (doi:10.1016/j.tca.2012.02.005)
